Results as given in US11484032B2, “Compositions for inhibition of insect sensing” (Vanderbilt University, priority 2011, dated 2022).

Legend:
AgORco = target: T1, AgORco (Anopheles gambiae, UniProt Q7QCC7); experiment: Whole-cell patch clamp, HEK293 cells stably expressing AgORco alone; type: cell-based; conditions: AgORco alone cells, holding potential −60 mV
T1 construct: expressed in transfected cells
T1 sequence (Q7QCC7 1-478): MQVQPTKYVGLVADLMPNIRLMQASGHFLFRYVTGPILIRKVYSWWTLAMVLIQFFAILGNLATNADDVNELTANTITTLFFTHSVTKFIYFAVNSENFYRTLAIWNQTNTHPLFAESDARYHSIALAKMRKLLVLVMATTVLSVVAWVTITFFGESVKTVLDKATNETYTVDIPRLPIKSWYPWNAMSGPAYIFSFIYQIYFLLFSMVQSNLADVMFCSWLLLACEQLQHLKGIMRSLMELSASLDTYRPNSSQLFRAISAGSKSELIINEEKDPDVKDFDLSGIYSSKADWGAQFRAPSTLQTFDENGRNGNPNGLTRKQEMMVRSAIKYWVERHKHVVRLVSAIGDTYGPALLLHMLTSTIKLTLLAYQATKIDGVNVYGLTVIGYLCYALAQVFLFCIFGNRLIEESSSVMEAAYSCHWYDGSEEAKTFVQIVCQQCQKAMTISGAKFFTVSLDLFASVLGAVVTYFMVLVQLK
Experimental: (§1) Currents from OR-expressing HEK293 cells were amplified with an Axopatch 200b Amplifier (Axon Instruments) and digitized through a Digidata 1322A (Axon Instruments). Electrophysiological data was recorded and analyzed using pCLAMP 10 (Axon Instruments). Electrodes were fabricated from quartz tubing (Sutter Instruments) and pulled to 4-6 MiΩ for whole cell recording. Electrodes were filled with internal solution (120 mM KCl, 30 mM D-glucose, 10 mM HEPES, 2 mM MgCl2, 1.1 mM EGTA, and 0.1 CaCl2) (pH 7.35, 280 mOsm). External (bath) solution contained 130 mM NaCl, 34 mM D-glucose, 10 mM HEPES, 1.5 mM CaCl2), 1.3 mM KH2PO4, and 0.5 MgSO4 (pH 7.35, 300 mOsm). Compounds were diluted in external solution and locally perfused to the recording cell using Perfusion Pencil (Automate Scientific) and controlled by a ValveLink 8.2 controller (Automate Scientific). Whole cell recordings were sampled at 10 kHz and filtered at 5 kHz. Outside-out patches were obtained using 10-15MΩ electrodes pulled from standard glass capillaries (World Precision Instruments) and fire-polished with an MF-830 micro forge (Narishige). Single channel recordings were sampled at 20 kHz. Recordings were reduced to 1 kHz and low-pass filtered at 500 Hz for display and analysis using QuB (SUNY at Buffalo).
(§2) To test the hypothesis that VUAA1 directly agonized AgORco, whole-cell patch clamp responses were examined in AgORco+AgOR10 expressing cells as well as HEK293 cells stably expressing AgORco alone. […] The VUAA1-dependent currents in AgORco+AgOR10 cells resembled those resulting from application of benzaldehyde, an orthosteric agonist of AgOR10 (FIG. 3C) (Wang, 2010; Carey, 2010). […] To investigate the specificity of VUAA1 agonism, the inventors transiently transfected HEK cells with the AgORco orthologs of Drosophila melanogaster and Heliothis virescens, DmORco and HvOR2 respectively.

AgORco+AgOR10 [1] = target: T2, AgORco+AgOR10 (Anopheles gambiae, UniProt Q7QCC7); experiment: Whole-cell patch clamp, HEK293 cells expressing AgORco+AgOR10; type: cell-based
T2 construct: expressed in transfected cells
T2 sequence (Q7QCC7 1-478): T1 sequence (Q7QCC7 1-478)
Experimental: as §1, §2

[2] = tested on: Un-transfected HEK293 cells; experiment: Whole-cell patch clamp, un-transfected HEK293 control cells; type: cell-based, human
Experimental: as §1

AgORco+AgOR10 [3] = target: T2, AgORco+AgOR10; experiment: Fluo-4 Ca2+ imaging, HEK293 cells expressing Orco+AgOR10; type: cell-based; parameters: Orco 10 + Orco Angatonist % Reduction / Orco 10 + Orco Agonist % of control: concentration or dose not given beside the values; conditions: Orco 10 + Orco; for Orco 10 + Orco Angatonist % Reduction: antagonist mode
Summary of the method: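 Stable Flp-In T-REx 293 lines co-expressing Orco and OR, induced overnight with 0.3 u-g/ul tetracycline, loaded with 1.8 uM Fluo-4 AM plus 2.5 mM probenecid for 45 min at 37 °C. Ca2+ mobilization read after 20 s baseline and compound addition; Max/Min ratios normalized to the maximum responder.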

Orco 28 + Orco = target: T3, Orco 28 + Orco (Anopheles gambiae, UniProt Q7QCC7); experiment: Activity against insect odorant sensory receptors, Orco 28 + Orco (Table 1); type: cell-based; conditions: for Orco 28 + Orco Antagonist % Reduction: antagonist mode; for Orco 28 + Orco Potentiator % increase: potentiator mode
T3 construct: expressed in transfected cells
T3 sequence (Q7QCC7 1-478): T1 sequence (Q7QCC7 1-478)
Experimental: The activity against insect odorant sensory receptors was evaluated for various disclosed compounds, and the data were collected in Table 1.

[4] = target: T4, mosquito odorant receptor (complex not stated) (Anopheles gambiae, UniProt Q7QCC7); experiment: Agonism of mosquito odorant receptors by VUAA derivatives (complex not stated), cell-based Ca2+ imaging; conditions: FIGS. 23, 24, 26, 28; OR complex not stated
T4 sequence (Q7QCC7 1-478): T1 sequence (Q7QCC7 1-478)
Text: For transient transfections, ORs were cloned into pCl (Promega) and transfected into Flp-In™ T-REx™293 cell lines (Invitrogen) with Fu GENE6 (Roche). For the creation of stable cell lines, a cell culture expression vector capable of expressing Orco in conjunction with a conventional OR, pcDNA5/FRT/TO (Invitrogen) was modified to create two individual expression cassettes each under the control of a separate CMV/Tet02 promoter and a BGH poly-adenylation signal. Cells (as above) were transfected with the modified pcDNA5 plasmid along with POG44 (a Flp recombinase expression plasmid) to facilitate site-specific recombination. Stable cell lines were selected using Hygromycin B (Invitrogen). Cells were maintained in DMEM (Invitrogen) supplemented with 10% Tetracycline-free FBS (HyClone) and 15 ng/ml Blasticidin. For fluorometric Ca2+ measurements, stable lines expressing ORs of interest were seeded at 20,000 cells/well in black wall, poly-lysine coated 384-well cell culture plates (Greiner) and treated with […] tetracycline (Sigma) overnight to induce OR expression. Cells were dye-loaded with 1.8 uM Fluo-4 AM (Molecular Probes), 2.5 mM Probenecid (Molecular Probes) in assay buffer (20 mM HEPES, IX HBSS) for 45 minutes at 37° C. in 5% CO2 prior to each assay. Ca^2+ mobilization was assayed in an FDSS6000 (Hamamatsu). Baseline readings were taken for 20 s before automated addition of compound previously diluted in DMSO and assay buffer. Ratios were described as Maximum/Minimum response and each response was normalized to the maximum responder.

[5] = target: T5, rat transient receptor potential vanilloid 1 (rTRPV1) (Rattus norvegicus, UniProt O35433); experiment: Whole-cell patch clamp, HEK cells stably expressing rTRPV1; type: cell-based
T5 construct: expressed in transfected cells
T5 sequence (O35433 whole entry): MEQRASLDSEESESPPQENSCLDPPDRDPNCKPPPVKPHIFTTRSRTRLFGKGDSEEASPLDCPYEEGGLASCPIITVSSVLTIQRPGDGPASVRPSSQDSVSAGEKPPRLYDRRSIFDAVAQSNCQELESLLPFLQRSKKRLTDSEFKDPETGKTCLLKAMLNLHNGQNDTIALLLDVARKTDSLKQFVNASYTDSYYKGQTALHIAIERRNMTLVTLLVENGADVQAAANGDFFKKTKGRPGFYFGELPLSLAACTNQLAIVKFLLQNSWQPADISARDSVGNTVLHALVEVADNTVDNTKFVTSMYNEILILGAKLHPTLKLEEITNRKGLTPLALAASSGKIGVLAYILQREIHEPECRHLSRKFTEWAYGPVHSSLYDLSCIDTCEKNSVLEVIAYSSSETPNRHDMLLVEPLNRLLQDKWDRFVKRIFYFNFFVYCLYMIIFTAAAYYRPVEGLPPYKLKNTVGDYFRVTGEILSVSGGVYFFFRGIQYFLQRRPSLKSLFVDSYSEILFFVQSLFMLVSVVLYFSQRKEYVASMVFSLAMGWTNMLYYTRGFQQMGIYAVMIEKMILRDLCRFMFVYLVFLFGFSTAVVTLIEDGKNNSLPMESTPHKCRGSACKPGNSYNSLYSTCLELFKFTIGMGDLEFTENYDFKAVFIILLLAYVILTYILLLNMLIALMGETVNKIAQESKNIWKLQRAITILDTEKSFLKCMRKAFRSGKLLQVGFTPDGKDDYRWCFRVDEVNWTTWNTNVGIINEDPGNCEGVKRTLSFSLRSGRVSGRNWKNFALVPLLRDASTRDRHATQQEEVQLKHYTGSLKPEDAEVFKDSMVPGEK

| SMILES | Orco 10 + Orco Angatonist % Reduction (AgORco+AgOR10 [3]) [%] | Orco 28 + Orco Antagonist % Reduction (Orco 28 + Orco) [%] | EC50 [4] [µM] | further results |
| --- | --- | --- | --- | --- |
| O=Cc1ccccc1 [Benzaldehyde] |  |  |  | whole-cell current response (AgORco): only Orco+AgOR10 cells responded to BA; whole-cell current response (AgORco+AgOR10 [1]; AgORco+AgOR10 cells, holding potential −60 mV): concentration-dependent responses; reversal potential of agonist-induced current (AgORco+AgOR10 [1]; AgORco+AgOR10 complexes, mean s.e.m.): −2.9±1.4 mV; whole-cell current response [2]: did not respond |
| CCn1c(SCC(=O)N2c3ccccc3Sc3ccccc32)nnc1-c1ccco1 | 48.26 | 28.73 |  |  |
| CCn1c(SCC(=O)Nc2ccc(C(C)C)cc2)nnc1-c1cn[nH]c1 [D00049 row 12] |  |  | 200 |  |
| CCn1c(SCC(=O)Nc2ccc(S(=O)(=O)Nc3ccccn3)cc2)nnc1-c1ccncc1 |  |  |  | Orco 10 + Orco Potentiator % increase (AgORco+AgOR10 [3]; potentiator mode): 12.31%; Orco 28 + Orco Potentiator % increase (Orco 28 + Orco): 15.45% |
| COc1cc(CNC(=O)CCCC/C=C/C(C)C)ccc1O [Capsaicin, capsaicin, reference compound] |  |  |  | whole-cell current response [5]: robust response |
| CCn1c(Cc2c(C)[nH]c3ccccc23)nnc1SCC(=O)Nc1ccc(Br)cc1 | 13.11 | 37.93 |  |  |
| CCn1c(SCC(=O)Nc2ccc(C(C)C)cc2)nnc1-c1cccnc1 [D00049 row 2] |  |  | 20 |  |
| CCn1c(COc2ccccc2)nnc1SCC(=O)Nc1cc(C)ccc1OC | 33.67 | 17.21 |  |  |
| CCn1c(SCC(=O)Nc2ccc(C(C)C)cc2)nnc1-c1cnn(C)c1 [D00049 row 11] |  |  | 180 |  |
| CCn1c(CNC(=O)c2ccco2)nnc1SCC(=O)Nc1cc(C)c(C)cc1Br |  |  |  | Orco 28 + Orco Potentiator % increase (Orco 28 + Orco): 12.28% |
